According to patent publication US20090181948A1, “DIAMINE DERIVATIVE” (KYOWA HAKKO KOGYO CO., LTD., priority 2005, published 2009):

Legend:
histamine H3 receptor = target: T1, histamine H3 receptor (Rattus norvegicus, UniProt Q9QYN8); assay: Histamine H3 receptor binding assay ([3H]-Nα-methylhistamine binding to rat striatum homogenate); conditions: 1 μmol/L test compound; [3H]-Nα-methylhistamine 1 nmol/L; striata of Sprague-Dawley male rats, 25° C., 1 hour; read-out: Inhibition ratio of [3H]-Nα-methylhistamine binding
T1 construct: from tissue; host or cells: rat striatum (Sprague-Dawley, male, 6 weeks), membrane homogenate
T1 sequence (Q9QYN8 whole entry): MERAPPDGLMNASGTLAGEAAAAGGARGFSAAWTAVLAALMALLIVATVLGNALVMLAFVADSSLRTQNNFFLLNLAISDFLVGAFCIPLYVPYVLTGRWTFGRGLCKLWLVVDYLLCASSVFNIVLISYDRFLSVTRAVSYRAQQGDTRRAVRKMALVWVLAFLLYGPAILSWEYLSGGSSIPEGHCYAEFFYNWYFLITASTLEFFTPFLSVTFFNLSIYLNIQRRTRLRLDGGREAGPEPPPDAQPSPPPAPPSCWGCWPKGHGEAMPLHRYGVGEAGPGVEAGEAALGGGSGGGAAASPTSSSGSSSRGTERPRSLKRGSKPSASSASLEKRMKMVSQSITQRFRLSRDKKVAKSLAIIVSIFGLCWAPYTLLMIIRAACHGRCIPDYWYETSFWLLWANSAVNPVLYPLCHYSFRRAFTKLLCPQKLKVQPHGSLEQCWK
How it was run: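 Rat striatum membranes (20 μg protein) incubated with [3H]-Nα-methylhistamine 1 nmol/L in 50 mmol/L Tris/HCl pH 7.4, 5 mmol/L EDTA, 1 hour at 25° C; bound ligand by filtration and scintillation counting. Nonspecific binding defined with 10 μmol/L thioperamide; % inhibition reported at 1 μmol/L compound.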

Row | inhibition at 1 µM (histamine H3 receptor) [%] | melting point [°C] | Compound
1 | ≥ 80 | 94 to 95 | C[C@@H]1CCCN1CCN1CCN(CCCN2CCC[C@@H]2C)C1=C(C#N)C#N [Compound 196, {3-[2-((R)-2-methylpyrrolidin-1-yl)ethyl]-1-[3-((S)-2-methylpyrrolidin-1-yl)propyl]imidazolidin-2-ylidene}malononitrile]
2 | – | 103 to 105 | N#CC(C#N)=C1N(CCCN2CCCCC2)CCN1C1CCN(CC(F)(F)F)CC1 [Compound 225, {1-(3-Piperidinopropyl)-3-[1-(2,2,2-trifluoroethyl)piperidin-4-yl]imidazolidin-2-ylidene}malononitrile]
3 | – | 136 to 137 | N#CC(C#N)=C(NCCCN1CCCCC1)N1CCN(C2CCCCC2)CC1 [Compound 183, [(4-Cyclohexylpiperazin-1-yl)(3-piperidinopropylamino)methylene]malononitrile]
4 | ≥ 80 | 70 to 71 | C[C@H]1CCCN1CCCN1CCN(CCN2CCCCC2)C1=C(C#N)C#N [Compound 195, {1-[3-((S)-2-methylpyrrolidin-1-yl)propyl]-3-(2-piperidinoethyl)imidazolidin-2-ylidene}malononitrile]
5 | ≥ 80 | 197 to 198 | CC(C)N1CCC(N(C)C(=C(C#N)C#N)N2CCC(CN3CCCCC3)CC2)CC1 [Compound 179, {[N-(1-isopropylpiperidin-4-yl)-N-methylamino](4-piperidinomethylpiperidino)methylene}malononitrile]
6 | ≥ 80 | 72 to 73 | C[C@H]1CCCN1CCCN1CCN(CCCN2CCOCC2)C1=C(C#N)C#N [Compound 201, {3-(3-Morpholinopropyl)-1-[3-((S)-2-methylpyrrolidin-1-yl)propyl]imidazolidin-2-ylidene}malononitrile]
7 | ≥ 80 | 85 to 86 | CC1CCCN1CCCN1C(=C(C#N)C#N)N(CCN2CCCCC2)c2ccccc21 (centres unmarked) [Compound 200, {1-[3-(2-Methylpyrrolidin-1-yl)propyl]-3-(2-piperidinoethyl)benzimidazolidin-2-ylidene}malononitrile]
8 | – | 147 to 148 | N#CC(C#N)=C(NC1CCN(Cc2ccccc2)CC1)NC1CCN(Cc2ccccc2)CC1 [Compound 239, [Bis(1-benzylpiperidin-4-ylamino)methylene]malononitrile]
9 | – | 127 to 128 | N#CC(C#N)=C1N(CCN2CCCCC2)c2ccccc2N1CCN1CCCCC1 [Compound 192, [1,3-Bis-(2-piperidinoethyl)benzimidazolidin-2-ylidene]malononitrile]
10 | ≥ 80 | – | CC(C)N1CCC(N2CCN(CCN3CCCCC3)C2=C(C#N)C#N)CC1 [Compound 207, [1-(1-Isopropylpiperidin-4-yl)-3-(2-piperidinoethyl)imidazolidin-2-ylidene]malononitrile]
11 | ≥ 80 | – | C[C@H]1CCCN1CCCCN1CCN(CCN2CCC[C@@H]2C)C1=C(C#N)C#N [Compound 190, {1-[4-((S)-2-methylpyrrolidin-1-yl)butyl]-3-[2-((S)-2-methylpyrrolidin-1-yl)ethyl]imidazolidin-2-ylidene}malononitrile]
12 | ≥ 80 | – | CN(CCCN1CCC(F)(F)C1)C(=C(C#N)C#N)N1CCC(N2CCCCC2)CC1 [Compound 169, ({N-[3-(3,3-difluoropyrrolidin-1-yl)propyl]-N-methylamino}(4-piperidinopiperidino)methylene)malononitrile]
13 | ≥ 80 | – | C[C@H]1CCCN1CCCN1CCN(CCCN2CCSCC2)C1=C(C#N)C#N [Compound 202, {1-[3-((S)-2-methylpyrrolidin-1-yl)propyl]-3-[3-(thiomorpholin-1-yl)propyl]imidazolidin-2-ylidene}malononitrile]
14 | ≥ 80 | – | N#CC(C#N)=C(NCCCN1CCC(F)(F)C1)N1CCC(N2CCCCC2)CC1 [Compound 168, {[3-(3,3-Difluoropyrrolidin-1-yl)propylamino](4-piperidinopiperidino)methylene}malononitrile]
15 | ≥ 80 | – | N#CCN1CCC(N2CCN(CCCN3CCCCC3)C2=C(C#N)C#N)CC1 [Compound 214, [1-(1-Cyanomethylpiperidin-4-yl)-3-(3-piperidinopropyl)imidazolidin-2-ylidene]malononitrile]

More lines, now with the values behind:

Row | Compound | inhibition at 1 µM (histamine H3 receptor) [%] | melting point [°C]
16 | CN(CCN1CCCCC1)C(=C(C#N)C#N)N1CCC(N(C)c2ccccc2)CC1 [Compound 146, {[4-(N-methyl-N-phenylamino)piperidino][N-methyl-N-(2-piperidinoethyl)amino]methylene}malononitrile] | – | 156 to 158
17 | CC1CCCN1CCCN1CCN(CCCN2CCC(F)(F)C2)C1=C(C#N)C#N (centres unmarked) [Compound 120, {1-[3-(3,3-Difluoropyrrolidin-1-yl)propyl]-3-[3-(2-methylpyrrolidin-1-yl)propyl]imidazolidin-2-ylidene}malononitrile] | ≥ 80 | 99 to 102
18 | C[C@@H]1CCCN1CCCN1CCN(CCCN2CCC[C@@H]2C)C1=C(C#N)C#N [Compound 117] | ≥ 80 | 87 to 89
19 | C[C@H]1CCCN1CCCN1CCN(CCCN2CCC[C@@H]2C)C1=CS(=O)(=O)CC#N [Compound 138, {1,3-Bis[3-((S)-2-methylpyrrolidin-1-yl)propyl]imidazolidin-2-ylidene}methanesulfonylacetonitrile] | – | 91 to 93
20 | N#CC(C#N)=C(NCCN1CCCCC1)N1CCC(CN2CCCCC2)CC1 [Compound 147, [(2-Piperidinoethylamino)(4-piperidinomethylpiperidino)methylene]malononitrile] | ≥ 80 | 78 to 80
21 | CC1CCCN1C1CCN(C(NCCCN2CCCCC2)=C(C#N)C#N)CC1 (centres unmarked) [Compound 163, {[4-(2-Methylpyrrolidin-1-yl)piperidino](3-piperidinopropylamino)methylene}malononitrile] | ≥ 80 | 83 to 84
22 | N#CC(C#N)=C(NCCCN1CCCCC1)N1CCC(N2CCOCC2)CC1 [Compound 164, [(3-Piperidinopropylamino) (4-morpholinopiperidino)methylene]malononitrile] | – | 122 to 124
23 | N#CCS(=O)(=O)C=C1N(CCCN2CCCCC2)CCN1CCCN1CCCCC1 [Compound 136, [1,3-Bis(3-piperidinopropyl)imidazolidin-2-ylidene]methanesulfonylacetonitrile] | – | 105 to 107
24 | CC1CC(C)CN(CCCN2CCN(CCCN3CCC(O)C3)C2=C(C#N)C#N)C1 (centres unmarked) [Compound 107, {1-[3-(3,5-Dimethylpiperidino)propyl]-3-[3-(3-hydroxypyrrolidin-1-yl)propyl]imidazolidin-2-ylidene}malononitrile] | ≥ 80 | –
25 | CC1CCN(CCCN2CCN(CCCN3CCCCC3)C2=C(C#N)C#N)CC1 [Compound 100, {1-[3-(4-Methylpiperidino)propyl]-3-(3-piperidinopropyl)imidazolidin-2-ylidene}malononitrile] | ≥ 80 | –
26 | N#CC(C#N)=C1N(CCCN2CCCCCC2)CCN1CCN1CCCCC1 [Compound 46, {1-[3-(Azepan-1-yl)propyl]-3-(2-piperidinoethyl)imidazolidin-2-ylidene}malononitrile] | ≥ 80 | –
27 | CC1CCCN1CC1CCN(C(=C(C#N)C#N)N(C)CCN2CCC[C@H]2C)CC1 (stereo partly drawn) [Compound 155, ({N-methyl-N-[2-((R)-2-methylpyrrolidin-1-yl)ethyl]amino}[4-(2-methylpyrrolidin-1-ylmethyl)piperidino]methylene)malononitrile] | ≥ 80 | –
28 | N#CC(C#N)=C1N(CCCN2CCCCCC2)CCN1CCCN1CCCCCC1 [Compound 66, {1,3-Bis[3-(azepan-1-yl)propyl]imidazolidin-2-ylidene}malononitrile] | ≥ 80 | –
29 | N#CC(C#N)=C1N(CCCN2CCC(C#N)CC2)CCN1CCN1CCCCC1 [Compound 40, {1-[3-(4-Cyanopiperidino)propyl]-3-(2-piperidinoethyl)imidazolidin-2-ylidene}malononitrile] | ≥ 80 | –
30 | CC1CCCN1CCN1CCN(CCCN2CCCC2)C1=C(C#N)C#N (centres unmarked) [Compound 54, {1-[2-(2-Methylpyrrolidin-1-yl)ethyl]-3-[3-(3-pyrrolidin-1-yl)propyl]imidazolidin-2-ylidene}malononitrile] | ≥ 80 | –
31 | C[C@@H]1CCCN1CCCN1CCN(CCCN2CCC[C@H]2C)C1=C(C#N)C#N [Compound 116, {1,3-Bis[3-((R)-2-methylpyrrolidin-1-yl)propyl]imidazolidin-2-ylidene}malononitrile Difumarate] | ≥ 80 | –
32 | N#CC(C#N)=C1N(CCCN2CCc3ccccc3C2)CCN1CCN1CCCCC1 [Compound 52, {1-[3-(1,2,3,4-Tetrahydroisoquinolin-2-yl)propyl]-3-(2-piperidinoethyl)imidazolidin-2-ylidene}malononitrile] | ≥ 80 | –
33 | CC1CC(C)CN(CCN2CCN(CCCN3CCCCC3)C2=C(C#N)C#N)C1 (centres unmarked) [Compound 13, {1-[2-(3,5-Dimethylpiperidino)ethyl]-3-(3-piperidinopropyl)imidazolidin-2-ylidene}malononitrile] | ≥ 80 | –
34 | C[C@@H]1C[C@H](C)CN(CCN2CCN(CCCN3CC=CCC3)C2=C(C#N)C#N)C1 [Compound 27, {1-[3-(1,2,3,6-Tetrahydropyridin-1-yl)propyl]-3-[2-(cis-3,5-dimethylpiperidino)ethyl]imidazolidin-2-ylidene}malononitrile] | ≥ 80 | –
35 | C[C@@H]1CCC[C@H](C)N1CCCN1CCN(CCN2CCCCC2)C1=C(C#N)C#N [Compound 50, {1-[3-(Cis-2,6-dimethylpiperidino)propyl]-3-(2-piperidinoethyl)imidazolidin-2-ylidene}malononitrile Difumarate] | ≥ 80 | –
